This note sets out measurements from US8058427B2, “Coumarin compounds and their use for treating cancer” (National Health Research Institutes, priority 2008, dated 2011).

Holding throughout (type): cell-based
The subject of assay [1] is HONE-1 (nasopharyngeal carcinoma). Description: Growth inhibition, methylene blue dye assay, HONE-1. The settings on record: Homo sapiens, HONE1, 72 h. As for the experimental part: (§1) Compound 1 was evaluated against 21 human tumor cell lines derived from nine cancer cell types: nasopharyngeal carcinoma (HONE-1, CPT 30, and HONE-cis6), cervical carcinoma (KB, KB-CPT100, KB7D, KB-1036, KB-S15, and KB-vin10), gastric carcinoma (TSGH), breast carcinoma (MCF-7), colorectal carcinoma (HT29), non-small cell lung carcinoma (H460), lymphoma (BJAB and H9), leukemia (CEM and HL 60), and hepatocellular carcinoma (Hep 3B, Hep G2, Huh 7, and Hcc36). […] Compound 140 was tested against the following 15 cell lines: HONE-1, CPT 30, and HONE-cis6, KB, KB-CPT100, KB7D, KB-1036, KB-S 15, and KB-vin10, TSGH, MCF-7, H460, BJAB, H9, and Hep G2. Compound 32 was tested against the following 8 cell lines: HONE-1, KB, TSGH, MCF-7, H460, BJAB, H9, and Hep G2.
(§2) Cells in logarithmic growth phase were cultured at a density of 5000 cells/ml/well in a 24-well plate. Drug-resistant cells were cultured in a medium free of test compounds for 3 days before use. The cells were exposed to various concentrations of a test compound for 72 h. The methylene blue dye assay was used to evaluate the effect of the test compound on cell growth, as has been described in Finlay et al., Anal. Biochem. 1984, 139, 272-277. The IC50 value resulting from 50% inhibition of cell growth was calculated graphically as a comparison with control growth.

A further assay concerns KB (cervical carcinoma). Description: Growth inhibition, methylene blue dye assay, KB. The settings on record: Homo sapiens, 72 h. The procedure: as §1, §2
In the next assay the test system is TSGH (gastric carcinoma). As to the kind of experiment: Growth inhibition, methylene blue dye assay, TSGH. The settings on record: Homo sapiens, 72 h. As for the experimental part:
as §1, §2

A further assay deals with MCF-7 (breast carcinoma). As to the kind of experiment: Growth inhibition, methylene blue dye assay, MCF7. The settings on record: Homo sapiens, MCF7, 72 h. The procedure:
as §1, §2

Assay [2] has as its system H460 (non-small cell lung carcinoma). As to the kind of experiment: Growth inhibition, methylene blue dye assay, H460. The settings on record: Homo sapiens, NCI-H460, H460, 72 h. As for the experimental part: as §1, §2
A further assay relates to BJAB (lymphoma). As to the kind of experiment: Growth inhibition, methylene blue dye assay, BJAB. The settings on record: Homo sapiens, 72 h. As for the experimental part: as §1, §2
The next assay deals with H9 (lymphoma). As to the kind of experiment: Growth inhibition, methylene blue dye assay, H9. The settings on record: Homo sapiens, H9, 72 h. As for the experimental part: as §1, §2
Assay [3] relates to Hep G2 (hepatocellular carcinoma). As to the kind of experiment: Growth inhibition, methylene blue dye assay, Hep G2. The settings on record: Homo sapiens, HepG2, Hep G2, 72 h. As for the experimental part: as §1, §2
Another assay concerns human tumor cell lines. Description: Growth inhibition, methylene blue dye assay, panel of tumor cell lines. The settings on record: most of the tested cell lines, 72 h. The procedure: as §1, §2
The subject of assay [4] is CPT30 (nasopharyngeal carcinoma). As to the kind of experiment: Growth inhibition, methylene blue dye assay, CPT30. The settings on record: Homo sapiens; CPT30, drug-resistant, camptothecin-driven selection, 72 h. As for the experimental part:
as §1, §2

In assay [5] the test system is HONE-cis6 (nasopharyngeal carcinoma). Description: Growth inhibition, methylene blue dye assay, HONE-cis6. The settings on record: Homo sapiens; HONE-cis6, drug-resistant, cisplatin-driven selection, 72 h. The procedure:
as §1, §2

Assay [6] has as its system KB-CPT100 (cervical carcinoma). Description: Growth inhibition, methylene blue dye assay, KB-CPT100. The settings on record: Homo sapiens, KBCPT100; KB-CPT100, drug-resistant, camptothecin-driven selection, 72 h. The procedure: as §1, §2
Assay [7] concerns KB7D (cervical carcinoma). Description: Growth inhibition, methylene blue dye assay, KB7D. The settings on record: Homo sapiens, VP-16-driven selection, 72 h. As for the experimental part: as §1, §2
Assay [8] has as its system KB-1036 (cervical carcinoma). As to the kind of experiment: Growth inhibition, methylene blue dye assay, KB-1036. The settings on record: Homo sapiens; KB-1036, D-501036 driven selection, 72 h. As for the experimental part:
as §1, §2

For assay [9], the system named is KB-S15 (cervical carcinoma). As to the kind of experiment: Growth inhibition, methylene blue dye assay, KB-S15. The settings on record: Homo sapiens; KB-S15, drug-resistant, paclitaxel-driven selection, 72 h. The procedure: as §1, §2
Assay [10] has as its system KB-vin10 (cervical carcinoma). Description: Growth inhibition, methylene blue dye assay, KB-vin10. The settings on record: Homo sapiens; KB-vin10, vincristine-driven selection, 72 h. As for the experimental part: as §1, §2
In assay [11] the test system is Human cervical carcinoma KB cells. As to the kind of experiment: Growth inhibition assay, KB cells (MTS). The settings on record: 72 h, read-out: IC50 (concentration causing 50% cell growth inhibition). As for the experimental part:
Anticancer activities of the compounds of this invention were evaluated using a growth inhibition assay described in Kuo et al., Cancer Res. 2004, 64(13), 4621-4628.
Human cervical carcinoma KB cells were maintained in plastic dishes in DMEM medium supplemented with 10% fetal bovine serum. For in vitro treatment, tumor cells were seeded in […] of culture medium/well in 96-well plates to a final cell density of 6×10^3 cell/mL and incubated in a CO2 incubator at 37° C. for 24 h. The cells were treated with at least five different concentrations of a test compound, and incubated in a CO2 incubator at 37° C. for 72 h. The number of viable cells was estimated using MTS assay and absorbance was measured at 490 nm. For each test compound, dose-response curves were measured with at least five different drug concentrations, and the concentration causing 50% cell growth inhibition (IC50) compared with the control was calculated.

The subject of assay [12] is HT29 (colorectal carcinoma). As to the kind of experiment: Growth inhibition, methylene blue dye assay, HT29. The settings on record: Homo sapiens, HT-29, HT29, 72 h. As for the experimental part:
as §1, §2

A further assay concerns CEM (leukemia). As to the kind of experiment: Growth inhibition, methylene blue dye assay, CEM. The settings on record: Homo sapiens, 72 h. The procedure:
as §1, §2

The test system of a further assay is HL 60 (leukemia). As to the kind of experiment: Growth inhibition, methylene blue dye assay, HL60. The settings on record: Homo sapiens, HL60, 72 h. As for the experimental part: as §1, §2
The test system of assay [13] is Hep 3B (hepatocellular carcinoma). As to the kind of experiment: Growth inhibition, methylene blue dye assay, Hep 3B. The settings on record: Homo sapiens, Hep3B, 72 h. As for the experimental part: as §1, §2
In assay [14] the test system is Huh 7 (hepatocellular carcinoma). As to the kind of experiment: Growth inhibition, methylene blue dye assay, Huh 7. The settings on record: Homo sapiens, Huh 7, 72 h. The procedure:
as §1, §2

Assay [15] deals with Hcc36 (hepatocellular carcinoma). As to the kind of experiment: Growth inhibition, methylene blue dye assay, Hcc36. The settings on record: Homo sapiens, Hcc36, 72 h. As for the experimental part: as §1, §2

Turning to `COc1ccc(C(=O)c2oc3ccc4c(C)cc(=O)oc4c3c2-c2ccccc2)cc1` [Compound 32], the IC50 in assay [1] was found to be 55 nM; in the assay with KB (cervical carcinoma) it was 41 nM; in the assay with TSGH (gastric carcinoma), 150 nM; with MCF-7 (breast carcinoma) it was 150 nM; in assay [2] it was 40 nM; in the assay with BJAB (lymphoma) it was 45 nM. Also, the IC50 was 124 nM with H9 (lymphoma), 5.5 µM in assay [3] and under 150 nM in the assay with human tumor cell lines.
Regarding `Cc1cc(=O)oc2c1ccc1oc(C(=O)c3ccccc3)c(-c3ccc(Br)cc3)c12` [Compound 140], the IC50 in assay [1] is 3 nM; in assay [4], 10.5 nM; in [5] it was 10 nM; in the assay on KB (cervical carcinoma) it was 7.7 nM; in assay [6], 9 nM; in assay [7], 8 nM. Moreover, the IC50 was determined as 13 nM in assay [8]; 10 nM in assay [9]; 10 nM in assay [10]; 41 nM in the assay with TSGH (gastric carcinoma); 13 nM with MCF-7 (breast carcinoma); 3 nM in assay [2]. The IC50 is 60 nM with BJAB (lymphoma), 20 nM with H9 (lymphoma), 2.6 µM in assay [3] and under 10 nM in the assay with human tumor cell lines.
Take `O=C(c1ccccc1)c1oc2ccc3ccc(=O)oc3c2c1-c1ccccc1` [Compound 2]: the IC50 in assay [11] lay within 101 to 999 nM.
The same measure, in the same setting: the result for `Cc1ccc(C(=O)c2oc3ccc4c(C)cc(=O)oc4c3c2-c2ccc(Br)cc2)cc1` [Compound 212] reads 1000 to 10000 nM; that for `CCCc1c(C(=O)c2ccccc2)oc2ccc3c(C)cc(=O)oc3c12` [Compound 155], 101 to 999 nM; that for `COc1ccc(C(=O)c2oc3ccc4c(C)cc(=O)oc4c3c2-c2ccc(Br)cc2)cc1` [Compound 214], 1000 to 10000 nM.
As to `Cc1cc(=O)oc2c1ccc1oc(C(=O)c3ccc(F)c(F)c3)c(-c3ccccc3)c12` [Compound 60], the IC50 in assay [11] fell in the range of 101 to 999 nM.
Same read-out and setting: in the case of `Cc1cc(=O)oc2c1ccc1oc(C(=O)c3cc(Cl)sc3Cl)c(-c3ccccc3)c12` [Compound 97] it was 1000 to 10000 nM; in that of `Cc1cc(=O)oc2c1ccc1oc(C(=O)c3ccccc3O)c(-c3ccccc3)c12` [Compound 204], 101 to 999 nM.
`COc1ccc(C(=O)c2oc3ccc4c(C)cc(=O)oc4c3c2-c2ccc(Cl)cc2)cc1` [Compound 223]: the IC50 in assay [11] lay in the range of 1000 to 10000 nM.
With `Cc1cc(=O)oc2c1ccc1oc(C(=O)c3cccc(OCCCOC4OC(CO)C(O)C(O)C4O)c3)c(-c3ccccc3)c12` (stereo not drawn) [Compound 197], in assay [11], the IC50 is 101 to 999 nM.
For `Cc1cc(=O)oc2c1ccc1oc(C(=O)c3ccccc3C(F)(F)F)c(-c3ccccc3)c12` [Compound 35], in assay [11], the IC50 was in the range of 1000 to 10000 nM.
As for `Cc1cc(=O)oc2c1ccc1oc(C(=O)c3ccccc3)c(-c3ccccc3)c12` [Compound 1, 8-benzoyl-4-methyl-9-phenyl-furo[2,3-h]chromen-2-one], the IC50 in assay [1] was 2 nM; in [4], 8.5 nM; in [5], 4.5 nM; in the assay on KB (cervical carcinoma) it was 1.3 to 1.8 nM; in assay [6] it was 6.25 nM; in assay [7], 0.8 nM. For the same molecule, the IC50 in assay [8] stood at 4 nM; in assay [9], 0.5 nM; in [10] it was 2.5 nM; with TSGH (gastric carcinoma), 17 nM; in the assay with MCF-7 (breast carcinoma), 4 nM; in assay [12] it was 7 nM. Besides, the IC50 in [2] was 0.5 nM; in the assay with BJAB (lymphoma) it was 110 nM; with H9 (lymphoma), 3.5 nM; in the assay on CEM (leukemia), 1000 nM; with HL 60 (leukemia) it was 1000 nM; in assay [13], 35 µM. In addition, the IC50 in assay [3] is 3.5 µM; in [14], 26.7 µM; in assay [15], 10.8 µM; in the assay on human tumor cell lines it was under 10 nM.
For `Cc1cc(=O)oc2c1ccc1oc(C(=O)c3cccc(OCCN[C@@]45C[C@@H]6C[C@@H](C[C@@](O)(C6)C4)C5)c3)c(-c3ccccc3)c12` [Compound 183], the IC50 in [11] lay in the range of 101 to 999 nM.
For `Cc1ccc(C(=O)c2oc3ccc4c(C)cc(=O)oc4c3c2-c2ccccc2)c(C)c1` [Compound 62], the IC50 in [11] fell in the range of 101 to 999 nM.
The same measure, in the same setting: in the case of `Cc1cc(=O)oc2c1ccc1oc(C(=O)c3ccc(Cl)cc3)c(-c3ccc(Br)cc3)c12` [Compound 210] it was 1000 to 10000 nM; in that of `Cc1cc(=O)oc2c1ccc1oc(C(=O)c3ccccc3)c(C3CCCCC3)c12` [Compound 165], 101 to 999 nM.
Still for that read-out and setting: in the case of `Cc1cc(=O)oc2c1ccc1oc(C(=O)c3ccccc3)c(/C=C/c3ccccc3)c12` [Compound 161] it was 101 to 999 nM; in that of `Cc1cc(=O)oc2c1ccc1oc(C(=O)c3ccccc3)cc12` [Compound 153], 101 to 999 nM.
As for `Cc1cc(=O)oc2c1ccc1oc(C(=O)c3ccccc3)c(-c3cccc(Cl)c3)c12` [Compound 136], the IC50 in [11] is 101 to 999 nM.
The same measure, in the same setting: the result for `O=C(c1ccccc1)c1oc2ccc3c4c(c(=O)oc3c2c1-c1ccccc1)CCCC4` [Compound 21] reads 1000 to 10000 nM.
As for `O=Cc1cc(=O)oc2c1ccc1oc(C(=O)c3ccccc3)c(-c3ccccc3)c12` [Compound 10], the IC50 in [11] was 101 to 999 nM.
`Cc1cc(=O)oc2c1ccc1oc(C(=O)c3cccc(OCCO)c3)c(-c3ccccc3)c12` [Compound 184]: the IC50 in assay [11] was in the range of 101 to 999 nM.
On the same count and under the same terms, in the case of `Cc1cc(=O)oc2c1ccc1oc(C(=O)c3ccc(N(C)C)cc3)c(-c3ccccc3)c12` [Compound 264] it was 101 to 999 nM; in that of `Cc1cc(=O)oc2c1ccc1oc(C(=O)c3cccc(OCCCCCCO[Si](C)(C)C(C)(C)C)c3)c(-c3ccccc3)c12` [Compound 193], 101 to 999 nM.
